{
  "source": "paper PMC4016962",
  "about": "(Molecules, 2014)",
  "data": [
    {"biological_target": "T1, B. anthracis DHFR (Bacillus anthracis, UniProt Q81R22)", "T1 construct": "gene dfrA", "T1 sequence (Q81R22 1-162)": "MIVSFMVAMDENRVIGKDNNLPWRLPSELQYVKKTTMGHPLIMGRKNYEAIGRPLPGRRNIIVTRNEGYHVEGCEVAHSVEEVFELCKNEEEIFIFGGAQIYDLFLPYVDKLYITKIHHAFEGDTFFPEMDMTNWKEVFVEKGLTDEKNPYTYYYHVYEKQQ", "assay": "biochemical", "units": {"Ki": "nM"}, "values": [
      {"smiles": "COc1cc(Cc2cnc(N)nc2N)cc(/C=C/C(=O)N2N=Cc3ccccc3C2C)c1OC", "note": "(racemic) [6a, (±)-(E)-3-(5-((2,4-Diaminopyrimidin-5-yl)methyl)-2,3-dimethoxyphenyl)-1-(1-methylphthalazin-2(1H)-yl)prop-2-en-1-one]", "Ki": "8.8 ± 0.2"},
      {"smiles": "CCC1c2ccccc2C=NN1C(=O)/C=C/c1cc(Cc2cnc(N)nc2N)cc(OC)c1OC", "note": "(racemic) [6b, (±)-(E)-3-(5-((2,4-Diaminopyrimidin-5-yl)methyl)-2,3-dimethoxyphenyl)-1-(1-ethylphthalazin-2(1H)-yl)prop-2-en-1-one]", "Ki": "6.8 ± 0.2"},
      {"smiles": "CCCCC1c2ccccc2C=NN1C(=O)/C=C/c1cc(Cc2cnc(N)nc2N)cc(OC)c1OC", "note": "(racemic) [6c, (±)-(E)-1-(1-n-Butylphthalazin-2(1H)-yl)-3-(5-((2,4-diaminopyrimidin-5-yl)methyl)-2,3-dimethoxyphenyl)prop-2-en-1-one]", "Ki": "7.9 ± 0.2"},
      {"smiles": "CCC(C)C1c2ccccc2C=NN1C(=O)/C=C/c1cc(Cc2cnc(N)nc2N)cc(OC)c1OC", "note": "(racemic) [6d, (±)-(E)-1-(1-s-Butylphthalazin-2(1H)-yl)-3-(5-((2,4-diaminopyrimidin-5-yl)methyl)-2,3-dimethoxyphenyl)prop-2-en-1-one]", "Ki": "10.4 ± 0.2"},
      {"smiles": "COc1cc(Cc2cnc(N)nc2N)cc(/C=C/C(=O)N2N=Cc3ccccc3C2C2CC2)c1OC", "note": "(racemic) [6e, (±)-(E)-1-(1-Cyclopropylphthalazin-2(1H)-yl)-3-(5-((2,4-diaminopyrimidin-5-yl)methyl)-2,3-dimethoxyphenyl)prop-2-en-1-one]", "Ki": "4.9 ± 0.2"},
      {"smiles": "COc1cc(Cc2cnc(N)nc2N)cc(/C=C/C(=O)N2N=Cc3ccccc3C2c2ccco2)c1OC", "note": "(racemic) [6f, (±)-(E)-3-(5-((2,4-Diaminopyrimidin-5-yl)methyl)-2,3-dimethoxyphenyl)-1-(1-(furan-2-yl)phthalazin-2(1H)-yl)prop-2-en-1-one]", "Ki": "5.9 ± 0.2"},
      {"smiles": "COc1cc(Cc2cnc(N)nc2N)cc(/C=C/C(=O)N2N=Cc3ccccc3C2c2cccs2)c1OC", "note": "(racemic) [6g, (±)-(E)-3-(5-((2,4-Diaminopyrimidin-5-yl)methyl)-2,3-dimethoxyphenyl)-1-(1-(thiophen-2-yl)-phthalazin-2(1H)-yl)prop-2-en-1-one]", "Ki": "8.4 ± 0.2"},
      {"smiles": "COc1cc(Cc2cnc(N)nc2N)cc(/C=C/C(=O)N2N=Cc3ccccc3C2c2ccccn2)c1OC", "note": "(racemic) [6h, (±)-(E)-3-(5-((2,4-Diaminopyrimidin-5-yl)methyl)-2,3-dimethoxyphenyl)-1-(1-(pyridin-2-yl)phthalazin-2(1H)-yl)prop-2-en-1-one]", "Ki": "9 ± 0.2"},
      {"smiles": "COc1cc(Cc2cnc(N)nc2N)cc(/C=C/C(=O)N2N=Cc3ccccc3C2CC(=O)OC(C)(C)C)c1OC", "note": "(racemic) [11a, t-Butyl (±)-(E)-2-(2-(3-(5-((2,4-Diaminopyrimidin-5-yl)methyl)-2,3-dimethoxyphenyl)acryloyl)-phthal-azin-2(1H)-yl)acetate]", "Ki": "59 ± 0.9"},
      {"smiles": "CCOC(=O)CC1c2ccccc2C=NN1C(=O)/C=C/c1cc(Cc2cnc(N)nc2N)cc(OC)c1OC", "note": "(racemic) [11b, Ethyl (±)-(E)-2-(2-(3-(5-((2,4-Diaminopyrimidin-5-yl)methyl)-(2,3-dimethoxyphenyl)acryloyl)-phthal-azin-2(1H)-yl)acetate]", "Ki": "24.9 ± 0.3"},
      {"smiles": "COC(=O)CC1c2ccccc2C=NN1C(=O)/C=C/c1cc(Cc2cnc(N)nc2N)cc(OC)c1OC", "note": "(racemic) [11c, Methyl (±)-(E)-2-(2-(3-(5-((2,4-Diaminopyrimidin-5-yl)methyl)-2,3-dimethoxyphenyl)acryloyl)-phthal-azin-2(1H)-yl)acetate]", "Ki": "20 ± 0.3"}
    ]}
  ]
}
